Assay results reported in patent publication US6589980B2, “Substituted 10,11-benzo[b]fluoren-10-ones as estrogenic agents” (Wyeth, priority 2001, dated 2003).

Assays:
human ERβ = target: T1, human ERβ (Homo sapiens, UniProt Q92731); assay: Competition with [3H]-17β-estradiol for binding to ERβ ligand binding domain; conditions: crude E. coli lysate expressing ER ligand binding domains (D,E,&F); 2 nM [3H]-17β-estradiol; 5-15 hours at room temperature
T1 construct: made in house; host or cells: E. coli (crude lysate)
T1 sequence (Q92731 264-498 limits assumed): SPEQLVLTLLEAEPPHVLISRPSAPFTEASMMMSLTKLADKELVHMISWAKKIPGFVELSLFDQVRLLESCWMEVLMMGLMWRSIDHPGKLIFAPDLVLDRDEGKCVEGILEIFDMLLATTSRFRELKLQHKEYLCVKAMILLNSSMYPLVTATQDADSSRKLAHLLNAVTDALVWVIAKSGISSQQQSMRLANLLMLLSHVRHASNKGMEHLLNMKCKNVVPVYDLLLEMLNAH
Description: (§1) This test procedure provides the methodology for one to determine whether a particular compound binds to the estrogen receptor (and is therefore “estrogenic”) and whether there is selectivity for ERα or ERβ. […] The procedure used is briefly described below. A crude lysate of E. coli expressing the estrogen receptor ligand binding domains (D,E, & F) of human ERα or ERβ was prepared. Both receptors and compounds were diluted in 1×Dulbecco's PBS (DPBS) supplemented with 1 mM EDTA. […] After between 5 and 15 hours at room temperature, the plates were washed with DPBS/1 mM EDTA and bound radioactivity determined by liquid scintillation counting.

human ERα = target: T2, human ERα (Homo sapiens, UniProt P03372); assay: Competition with [3H]-17β-estradiol for binding to ERα ligand binding domain; conditions: crude E. coli lysate expressing ER ligand binding domains (D,E,&F); 2 nM [3H]-17β-estradiol; 5-15 hours at room temperature
T2 construct: made in house; host or cells: E. coli (crude lysate)
T2 sequence (P03372 311-547 limits assumed): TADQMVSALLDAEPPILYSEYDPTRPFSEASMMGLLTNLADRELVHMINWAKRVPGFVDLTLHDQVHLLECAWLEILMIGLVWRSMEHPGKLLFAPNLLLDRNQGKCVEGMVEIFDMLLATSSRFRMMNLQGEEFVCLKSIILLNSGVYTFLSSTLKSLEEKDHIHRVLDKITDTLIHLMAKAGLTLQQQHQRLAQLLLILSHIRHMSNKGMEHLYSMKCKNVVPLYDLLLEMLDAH
Description: as §1

| IC50 (human ERβ) [nM] | IC50 (human ERα) [nM] | melting point [°C] | SMILES |
| --- | --- | --- | --- |
| 2 | – | – | O=c1c2c(O)cc(O)cc2oc2oc3cc(O)ccc3c12 [2,6,8-Trihydroxy-10,11-dioxa-benzo[b]fluoren-5-one] |
| 28 | 482 | > 300 | O=c1c2ccc(O)cc2oc2oc3cc(O)ccc3c12 [2,8-Dihydroxy-10,11-dioxa-benzo[b]fluoren-5-one] |
| – | 2730 | – | COc1cc(O)c2c(=O)c3c(oc2c1)oc1cc(O)ccc13 [2.6-Dihvdroxy-8-methoxy-10,11-dioxa-benzo[b]fluoren-5-one] |
